Read-outs that look alike come from different tables or passages of the source.
Tests used:
human CD40/CD154 = target: T1, human CD40/CD154 (Homo sapiens, UniProt P29965); assay: Human CD40/CD154 binding inhibition assay (cell-free, plate-based); details: for Human CD40/CD154 IC50 / IC50: cell-free binding; for Human CD40/CD154 log IC50: log of IC50, cell-free binding
T1 construct: CD154 (soluble human, FLAG-tagged, recombinant from Alexis Biochemicals; MW=18 kDa); purchased Alexis Biochemicals
T1 sequence (P29965 113-261 limits assumed): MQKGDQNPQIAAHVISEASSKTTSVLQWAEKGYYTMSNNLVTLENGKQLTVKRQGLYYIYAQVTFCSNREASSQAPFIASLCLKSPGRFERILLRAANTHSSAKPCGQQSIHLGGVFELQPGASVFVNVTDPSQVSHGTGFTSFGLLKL
Procedure: A 96-well plate-based cell-free in vitro binding inhibition assay, which is a modification of an assay described in U.S. Pat. No. 7,173,046, incorporated by reference in its entirety, has been developed and used for activity screening. Briefly, CD40 is coated at a preselected concentration, and binding of (FLAG-tagged) CD154 is measured by reacting with secondary antibody and using TMB liquid substrate system as a substrate for horseradish peroxidase for reading at 450 nm. The detailed procedure is as follows: Microtiter plates (Nunc F MaxiSorp) were coated with […] of CD40: Fc (human:Fc human, recombinant from Alexis Biochemicals; MW=54 kDa) diluted in PBS pH 7.2 at a preselected concentration of 0.3125 μg/mL. Plates were covered with plate sealer and stored overnight at 4° C. The liquid was removed from the plates and blotted dry. Plates were blocked by washing once with approx. 300 μL/well of Blocking Solution (PBS pH 7.2, 0.05% Tween-20, 1% BSA) and incubated with the same solution for 1 hour at room temperature (RT) or at 4° C. overnight. Coated plates were washed three times with Washing Solution (PBS pH 7.4, 0.05% Tween-20) and blotted dry. A preselected dilution of CD154 (soluble human, FLAG-tagged, recombinant from Alexis Biochemicals; MW=18 kDa) of 0.0087500875 μg/mL range was prepared in 100 mM HEPES, 0.005% BSA pH 7.2. Binding was carried out by adding 100 μL of this CD154 dilution/well and incubating at RT in the presence of test compounds (or blank as negative control). After incubation, the plates were washed with Washing Solution and blotted dry. Bound CD154 was detected with 200 μL/well of secondary antibody mAb ANTI-FLAG M2—Peroxidase Conjugate (anti-FLAG M2-peroxidase HRP conjugate; Sigma-Aldrich) diluted 1:40,000 in Washing Solution. After incubation, the plates were washed and blotted dry. 200 μL/well of the HR-Peroxidase substrate TMB (3,3′,5,5′-tetramethylbenzidine; Sigma-Aldrich) were added, and the plates were incubated for approximately 30 minutes in the dark. The reaction was stopped with 0.5 M H2SO4 and read at 450 nm. All conditions were tested in at least three independent experiments in duplicate or triplicate per plates. Data were normalized and fitted with standard log inhibitor vs. response models using GraphPad Prism 5 to establish median inhibitory ICso values.
A representative result using the monoclonal anti-human CD154 antibody (R&D Systems, monoclonal anti-human CD40 ligand/TNFSF5 antibody, MAB617; MW≈150 kDa used) as positive control is shown in FIG. 1.
Binding inhibition assays with this system provided consistent and well-reproducible results, as FIG. 1 (bottom), focusing on the concentration range of their activities, illustrates. […] The effect of DMSO, which was used as the diluting solvent for the non-water-soluble compounds and is a standard solvent in HTS assays, on the integrity of the assay has been examined. DMSO concentrations above 10% interfere with the binding assay, but concentrations below 3% have no effect. […] Because 5 or 10 mM stock solutions were used, all IC50 values below 250 μM can be considered as unaffected by DMSO.

human TNF-R1/TNFα [1] = target: human TNF-R1/TNFα (Homo sapiens, UniProt P01375+P19438); assay: Specificity test: human TNF-R1/TNFα binding inhibition assay; details: for IC50: cell-free binding, read-out: Human TNFR1/TNFα IC50; for Human TNFR1/TNFα log IC50: log of IC50, cell-free binding
Source text: (§1) A main concern for the therapeutic applicability of these compounds and of small molecule PPI inhibitors in general is related to their ability to achieve some acceptable degree of selectivity/specificity for the PPI of interest. To identify compounds that show acceptable specificity for the CD40/CD154 system, their ability to inhibit the TNF-R1/TNF-α PPI was investigated since this is particularly relevant as CD154 is part of the TNF superfamily. The experimental setup used was very similar to the one described in Example 1, but using plate-coated TNF-R1 and TNF-α as ligand (with a corresponding anti-TNF-α mAb as positive control). The concentration of TNF-R1 and TNF-α used were 0.6 μg/mL and 0.02 μg/mL, respectively.

[2] = target: T2, mouse CD40/CD154 (mCD40:mCD154) (Mus musculus, UniProt P27548); assay: Murine CD40/CD154 binding inhibition assay
T2 construct: (FLAG-tagged) mCD154 (recombinant mouse CD40L, soluble, Alexis Biochemicals); purchased R&D Systems (mCD40/Fc); Alexis Biochemicals (mCD154)
T2 sequence (P27548 112-260 limits assumed): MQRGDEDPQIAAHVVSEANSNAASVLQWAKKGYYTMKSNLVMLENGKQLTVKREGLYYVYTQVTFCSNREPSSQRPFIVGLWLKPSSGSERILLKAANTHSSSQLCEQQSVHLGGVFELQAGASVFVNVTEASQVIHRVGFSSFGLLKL
Procedure: Compounds of interest were also tested in a murine (mouse) model similar to the human one with murine CD40 and CD154 replacing the corresponding human proteins. This serves as additional confirmation of the in vitro inhibitory potential of these compounds, and it was considered important because mouse models are likely to be used as the first in vivo tests. […] The experimental setup used was similar to the one described above, but using mCD40 (recombinant mouse CD40/TNFRSF5/Fc Chimera, soluble, R&D Systems) and (FLAG-tagged) mCD154 (recombinant mouse CD40L, soluble, Alexis Biochemicals). This time, however, a higher concentration of CD154 ligand had to be employed to obtain adequate signals, and after a number of calibration tests, mCD40 coating at 0.3125 μg/mL with mCD154 (mCD40L) at 1.1212 μg/mL range was selected to be used to screen the inhibiting activity of various compounds.
The experiments confirmed that the murine anti-CD154 monoclonal antibody (Taconic, MR1) was active in this system at the expected concentration (˜1 nM range), the human antibody was not, and vice versa, the human mAb was active in the human system, but not in the mouse system. The mouse system provided a similar range of activity with some (up to approximately five-fold) changes in activities compared to that seen in the human system (FIG. 2) (Table 1).

CD40 = target: T3, CD40 (Homo sapiens, UniProt P25942); assay: Identification of binding partner: binding to CD40 (pre-incubation, wash-out); details: compound incubated 1 h with CD40, washed, then CD154 added
T3 construct: purchased Alexis Biochemicals
Source text: It is also of interest to identify whether the compounds bind to the receptor CD40 or its ligand CD154 (CD40L). The main goal is to block the CD40/CD154 costimulatory interaction to achieve altered immune response and long-term tolerance; however, it seems more desirable to achieve this by targeting CD154, which is expressed mainly on activated T cells, since this way a more specific immune suppression could be achieved then by targeting CD40. To evaluate the binding partner of the test compounds, CD40 or CD154 were incubated for one hour with increasing concentrations of the test compounds, and after a wash, their ability to still bind their corresponding protein binding partner (CD154 or CD40, respectively) was assessed using a setup similar to that described before (Example 1).
To test if compounds bind specifically to CD40, the procedure of Example 1 was followed with a modification. After blocking the plates with blocking solution and washing, 100 μL of different dilutions of the compounds were added to the wells and incubated at room temperature (RT) for 1 h to allow binding with CD40 in the absence of its CD154 ligand. The plates were then washed three times with washing solution. CD154 was then added and the amount bound was assessed as before.

human TNF-R1/TNFα [3] = assay: Specificity test: human TNF-R1/TNFα binding inhibition assay
Source text: as §1

[4] = read-out: Human CD40/CD154 IC50
[5] = cell-free binding, read-out: Mouse CD40/CD154 IC50

human TNF-R1/TNFα (Homo sapiens, UniProt P01375+P19438), sequence (P01375 77-233 limits assumed): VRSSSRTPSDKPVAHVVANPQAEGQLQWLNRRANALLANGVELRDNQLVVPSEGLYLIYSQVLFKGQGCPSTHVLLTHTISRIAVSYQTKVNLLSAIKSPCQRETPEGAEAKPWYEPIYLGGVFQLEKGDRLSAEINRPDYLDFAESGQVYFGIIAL
human TNF-R1/TNFα (Homo sapiens, UniProt P01375+P19438), sequence (P19438 30-211 limits assumed): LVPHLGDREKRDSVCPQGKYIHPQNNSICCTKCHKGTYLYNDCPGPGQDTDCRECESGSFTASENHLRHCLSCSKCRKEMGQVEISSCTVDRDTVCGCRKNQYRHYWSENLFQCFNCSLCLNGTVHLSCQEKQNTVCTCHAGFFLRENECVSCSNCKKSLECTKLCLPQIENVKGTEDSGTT
T3 sequence (P25942 21-193 limits assumed): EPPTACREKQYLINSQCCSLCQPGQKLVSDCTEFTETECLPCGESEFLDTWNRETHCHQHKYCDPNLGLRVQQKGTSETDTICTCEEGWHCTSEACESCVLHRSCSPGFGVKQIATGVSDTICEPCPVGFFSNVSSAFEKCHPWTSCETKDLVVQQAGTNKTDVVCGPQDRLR

| Compound | Human CD40/CD154 IC50 (human CD40/CD154) [µg/mL] | IC50 (human CD40/CD154; [4]) [µM] | Human CD40/CD154 log IC50 (human CD40/CD154) | IC50 (human TNF-R1/TNFα [1]) [µM] | Human TNFR1/TNFα log IC50 (human TNF-R1/TNFα [1]) | IC50 [2, 5] [µM] | Mouse CD40/CD154 log IC50 ([2]; log of IC50, cell-free binding) | Binding to CD40 (CD40) | Specificity (human TNF-R1/TNFα [3]) | Inhibitory activity for all interactions tested (human TNF-R1/TNFα [3]; all interactions tested (CD40/CD154, TNF-R1/TNF-α)) [µM] | IC50 (human CD40/CD154; read-out: Human CD40/CD154 IC50 (ug/mL) (converted)) [µM] | IC50 ([2]; log of IC50, cell-free binding, read-out: Mouse CD40/CD154 log IC50 (converted)) [µM] |
| --- | --- | --- | --- | --- | --- | --- | --- | --- | --- | --- | --- | --- |
| Nc1ccc2cc(S(=O)(=O)[O-])cc(O)c2c1N=Nc1ccc(NC(=O)Nc2ccc(N=Nc3c(N)ccc4cc(S(=O)(=O)[O-])cc(O)c34)c(S(=O)(=O)[O-])c2)cc1S(=O)(=O)[O-].[Na+].[Na+].[Na+].[Na+] [Direct red 75 (chlorazol fast pink), direct red 75] | 4.9 | 4.8 | −5.32 | 322 | −3.49 | 7.4 | −5.13 |  |  |  |  |  |
| O=C(Nc1ccc2c(O)c(N=Nc3ccc(N=Nc4ccc(S(=O)(=O)[O-])cc4)cc3S(=O)(=O)[O-])c(S(=O)(=O)[O-])cc2c1)Nc1ccc2c(O)c(N=Nc3ccc(N=Nc4ccc(S(=O)(=O)[O-])cc4)cc3S(=O)(=O)[O-])c(S(=O)(=O)[O-])cc2c1.[Na+].[Na+].[Na+].[Na+].[Na+].[Na+] [Direct red 80, direct red 80] | 1.9 | 1.8 | −5.73 | 1430 | −2.85 | 5.9 | −5.23 |  |  |  |  |  |
| O=C(Nc1ccc2c(O)c(N=Nc3ccc(N=Nc4ccc(S(=O)(=O)[O-])cc4)cc3)c(S(=O)(=O)[O-])cc2c1)c1ccccc1.[Na+].[Na+] [Direct red 81, direct red 81] | 6.9 | 13.6 | −4.87 | > 1000 | >−3.0 | 33.8 | −4.47 |  |  |  |  |  |
| O.O=C([O-])c1ccccc1-c1c2cc(I)c(=O)c(I)c-2oc2c(I)c([O-])c(I)cc12.[Na+].[Na+] [Erythrosin B (FD&C red 3), Erythrosin B, reference compound] | 2.0 | 1.9 | −5.72 | 9 | −5.04 | 5.9 | −5.23 | ubiquitous binder | nonspecific promiscuous inhibitor | ~10 |  |  |
| O=C(Nc1ccc(C(=O)Nc2ccc(C(=O)Nc3ccc(S(=O)(=O)O)c4cc(S(=O)(=O)O)cc(S(=O)(=O)O)c34)cc2)cc1)Nc1ccc(C(=O)Nc2ccc(C(=O)Nc3ccc(S(=O)(=O)O)c4cc(S(=O)(=O)O)cc(S(=O)(=O)O)c34)cc2)cc1 [NF279] |  | 4.7 |  | 438 |  | 2.3 |  |  |  |  | 5.2 | 2.24 |
| direct fast red B | 5.7 | 14 | −4.86 | 2160 | −2.67 | 16.7 | −4.78 |  |  |  |  |  |
| direct red 13 | 3.5 | 5.5 | −5.26 | 214 | −3.67 | 12.7 | −4.90 |  |  |  |  |  |

Source: patent US20110065675A1, “AZO DYE RELATED SMALL MOLECULE MODULATORS OF PROTEIN-PROTEIN INTERACTIONS” (University of Miami, priority 2008, published 2011)
